Test results taken from US20060069132A1, “Azolecarboxamide herbicides” (priority 2004, published 2006).

What was measured:
downy bromegrass = test: Test F pre-/postemergence herbicide test; type: in vivo, Bromus tectorum
From the text: (§1) Seeds of plant species selected from annual blugrass (Poa annua L.), blackgrass (Alopecurus myosuroides Huds.), catchweed bedstraw (Gallium aparine L.), common chickweed (Stellaria media (L.) Vill./Cyr.), downy bromegrass (Bromus tectorum L.), green foxtail (Setaria viridis (L.) Beauv.), Italian ryegrass (Lolium multiflorum Lam.), kochia (Kochia scoparia (L.). Schrad.), lambsquarters (Chenopodium album L.), littleseed canarygrass (Phalaris minor Retz.), pigweed (Amaranthus retroflexus L.), Russian thistle (Salsola kali L. ssp. Ruthenica (Iljin) Soo), wild buckwheat (Polygonum convolvulus L.), wild mustard (Sinapis arvensis L.), wild oat (Avena fatua L.), windgrass (Apera spica-venti (L.) Beauv.), winter barley (Hordeum vulgare L.), and wheat (Triticum aestivum L.) were planted and treated preemergence with test chemicals formulated in a non-phytotoxic solvent mixture which included a surfactant.
(§2) At the same time, plants selected from these crop and weed species were treated with postemergence applications of some of the test chemicals formulated in the same manner. Plants ranged in height from 2 to 18 cm (1- to 4-leaf stage) for postemergence treatments. Treated plants and controls were maintained in a greenhouse for 12 to 14 days, after which time all species were compared to controls and visually evaluated. Plant response ratings, summarized in Table F, are based on a scale of 0 to 100 where 0 is no effect and 100 is complete control. A dash (-) response means no test result.

blackgrass = test: Test F pre-/postemergence herbicide test; type: in vivo, Alopecurus myosuroides
From the text: as §1, §2

winter barley = test: Test F pre-/postemergence herbicide test; type: in vivo, Hordeum vulgare
From the text: as §1, §2

kochia [1] = test: Test F pre-/postemergence herbicide test; type: in vivo, Kochia scoparia
From the text: as §1, §2

catchweed bedstraw = test: Test F pre-/postemergence herbicide test; type: in vivo, Gallium aparine
From the text: as §1, §2

pigweed = test: Test F pre-/postemergence herbicide test; type: in vivo, Amaranthus retroflexus
From the text: as §1, §2

littleseed canarygrass = test: Test F pre-/postemergence herbicide test; type: in vivo, Phalaris minor
From the text: as §1, §2

[2] = tested on: corn (maize) cv. Pioneer 33G26; test: Test G safening on corn by naphthalic anhydride seed treatment, preemergence; type: in vivo, Zea mays
From the text: This test evaluated the safening of compounds of the invention on corn (maize; Zea mays L.) cv. ‘Pioneer 33G26’ by seed treatment with naphthalic anhydride (1,8-naphthalic anhydride). All corn seed had been first treated with fludioxonil and metaxyl applied at the manufacturer's recommended rate as per the Pioneer 33G26 label. Some of the corn seed were subsequently also treated with naphthalic anhydride as a 1% by weight seed dressing. The corn seed were planted in pots containing pasteurized Sassafras sandy loam soil, and then treatments were applied preemergence the same day. Treatments were applied by spraying the test compounds formulated in a non-phytotoxic solvent mixture, using a flat fan nozzle and a spray volume of 280 L/ha. The treatments were triply replicated and the results subsequently averaged. The pots were placed on a greenhouse bench using a complete randomized block design except for the first replicate, which was unrandomized. The plants were grown in the greenhouse and watered as needed with a dilute nutrient solution containing 200 ppm of N. Illumination was daylight supplemented by artificial sources to maintaining a photoperiod of 16 hours. The temperature was maintained at 28±2° C. during the day and 23±2° C. at night. The plant response was visually rated 25 days after treatment in comparison to untreated controls using a scale of 0 to 100, with 0 representing no effect and 100 representing complete plant death.

kochia [3] = test: Test E pre-/postemergence herbicide test; type: in vivo, Kochia scoparia
From the text: Seeds of plant species selected from bipinnate beggarticks (Bidens bipinnata L.), hairy beggarticks (Bidens radiata Thuill.), bermudagrass (Cynodon dactylon (L.) Pers.), Surinam grass (Urochloa decumbens (Staph) R. D. Webster, previously named Brachiaria decumbens Stapf), large crabgrass (Digitaria sanguinalis (L.) Scop.), green foxtail (Setaria viridis (L.) P. Beauv.), goosegrass (Eleusine indica (L.) Gaertn.), johnsongrass (Sorghum halepense (L.) Pers.), kochia (Kochia scoparia (L.) Schrad.), pitted morningglory (Ipomoea lacunosa L.), purple nutsedge (Cyperus rotundus L.), common ragweed (Ambrosia elatior L.), mustard (Brassica nigra (L.) W. D. J. Koch), guineagrass (Panicum maximum Jacq.), dallisgrass (Paspalum dilatatum Poir.), barnyardgrass (Echinochloa crus-galli (L). P. Beauv.), southern sandbur (Cenchrus echinatus L.), common sowthistle (Sonchus oleraceous L.), prickly sida (Sida spinosa L.), Italian ryegrass (Lolium multiflorum Lam.), common purslane (Portulaca oleracea L.), broadleaf signalgrass (Brachiaria platyphylla (Griseb.) Nash), common groundsel (Senecio vulgaris L.), common chickweed (Stellaria media (L.) Vill/Cyr.), tropical spiderwort (Commelina benghalensis L.), annual bluegrass (Poa annua L.), downy bromegrass (Bromus tectorum L.), itchgrass (Rottboellia cochinchinensis (L.) L.f.), quackgrass (Elytrigia repens (L.) Nevski), Canada horseweed (Erigeron Canadensis L.), field bindweed (Convolvulus arvensis L.), spotted spurge (Euphorbia maculata L.), common mallow (Malva sylvestris (=s silvestris) L.), and Russian thistle (Salsola kali L. ssp. Ruthenica (Iljin) Soo) were planted and treated preemergence with test chemicals formulated in a non-phytotoxic solvent mixture which included a surfactant.
as §2, with “these” for “these crop and”, “E,” for “F,”

[4] = Preemergence, 62 g ai/ha, scale 0 to 100
[5] = Preemergence, 250 g ai/ha, scale 0 (no effect) to 100 (complete control)
[6] = Preemergence, 500 g ai/ha, scale 0 (no effect) to 100 (complete control)

Compound: CCc1nn(C(C)(C)C)cc1C(=O)Nc1cc(C(=O)N(CC)CC)ccc1F [Compound 223]
- Plant response rating (0-100), Bromegrass, Downy (downy bromegrass; Postemergence, 125 g ai/ha): 20
- Plant response rating (0-100), Bromegrass, Downy (downy bromegrass; Preemergence, 125 g ai/ha): 50
- Plant response rating (0-100), Blackgrass (blackgrass; Postemergence, 125 g ai/ha): 60
- Plant response rating (0-100), Blackgrass (blackgrass; Preemergence, 125 g ai/ha): 70
- Plant response rating (0-100), Barley, Winter (winter barley; Postemergence, 125 g ai/ha): 0
- Plant response rating (0-100), Barley, Winter (winter barley; Preemergence, 125 g ai/ha): 25
- Plant response rating (0-100), Kochia (kochia [1]; Postemergence, 125 g ai/ha): 75
- Plant response rating (0-100), Kochia (kochia [1]; Preemergence, 125 g ai/ha): 75
- Plant response rating (0-100), Galium (catchweed bedstraw; Postemergence, 125 g ai/ha): 60
- Plant response rating (0-100), Galium (catchweed bedstraw; Preemergence, 125 g ai/ha): 50
- Plant response rating (0-100), Pigweed (pigweed; Postemergence, 125 g ai/ha): 65
- Plant response rating (0-100), Pigweed (pigweed; Preemergence, 125 g ai/ha): 100
- Plant response rating (0-100), Canarygrass (littleseed canarygrass; Postemergence, 125 g ai/ha): 40
- Plant response rating (0-100), Canarygrass (littleseed canarygrass; Preemergence, 125 g ai/ha): 50

Compound: CCNC(=O)c1ccc(F)c(NC(=O)c2cc(C(C)(C)C)nn2CC)c1 [Compound 2, 3-(1,1-dimethylethyl)-1-ethyl-N-[5-[(ethylamino)carbonyl]-2-fluorophenyl]-1H-pyrazole-5-carboxamide]
- Response of corn, With 1% naphthalic anhydride seed treatment ([2]; 62 g a.i./ha): 50
- Response of corn, Without naphthalic anhydride seed treatment ([2]; 62 g a.i./ha): 65
- Response of corn, With 1% naphthalic anhydride seed treatment ([2]; 125 g a.i./ha): 55
- Response of corn, Without naphthalic anhydride seed treatment ([2]; 125 g a.i./ha): 72
- Response of corn, With 1% naphthalic anhydride seed treatment ([2]; 250 g a.i./ha): 68
- Response of corn, Without naphthalic anhydride seed treatment ([2]; 250 g a.i./ha): 78
- Response of corn, With 1% naphthalic anhydride seed treatment ([2]; 500 g a.i./ha): 72
- Response of corn, Without naphthalic anhydride seed treatment ([2]; 500 g a.i./ha): 85
- Plant response rating, Kochia (kochia [3]; [4]): 90
- Plant response rating, Kochia (kochia [3]; Preemergence, 125 g ai/ha, scale 0 (no effect) to 100 (complete control)): 100
- Plant response rating, Kochia (kochia [3]; [5]): 100
- Plant response rating, Kochia (kochia [3]; [6]): 100
- Plant response rating, Kochia (kochia [3]; postemergence, 125 g ai/ha, scale 0 to 100): 100

Compound: CCn1nc(C(C)(C)C)cc1C(=O)Nc1cccc(C(N)=O)n1 [Compound 162, 6-[[[3-(1,1-dimethylethyl)-1-ethyl-1H-pyrazol-5-yl]carbonyl]amino]-2-pyridinecarboxamide]
- Plant response rating (0-100), Bromegrass, Downy (downy bromegrass; Postemergence, 62 g ai/ha): 50
- Plant response rating (0-100), Bromegrass, Downy (downy bromegrass; Postemergence, 125 g ai/ha): 50
- Plant response rating (0-100), Bromegrass, Downy (downy bromegrass; Postemergence, 250 g ai/ha): 80
- Plant response rating (0-100), Bromegrass, Downy (downy bromegrass; Postemergence, 500 g ai/ha): 90
- Plant response rating (0-100), Bromegrass, Downy (downy bromegrass; Preemergence, 62 g ai/ha): 70
- Plant response rating (0-100), Bromegrass, Downy (downy bromegrass; Preemergence, 125 g ai/ha): 100
- Plant response rating (0-100), Bromegrass, Downy (downy bromegrass; Preemergence, 250 g ai/ha): 100
- Plant response rating (0-100), Bromegrass, Downy (downy bromegrass; Preemergence, 500 g ai/ha): 100
- Response of corn, With 1% naphthalic anhydride seed treatment ([2]; 62 g a.i./ha): 0
- Response of corn, Without naphthalic anhydride seed treatment ([2]; 62 g a.i./ha): 15
- Response of corn, With 1% naphthalic anhydride seed treatment ([2]; 125 g a.i./ha): 25
- Response of corn, Without naphthalic anhydride seed treatment ([2]; 125 g a.i./ha): 30
- Response of corn, With 1% naphthalic anhydride seed treatment ([2]; 250 g a.i./ha): 60
- Response of corn, Without naphthalic anhydride seed treatment ([2]; 250 g a.i./ha): 68
- Response of corn, With 1% naphthalic anhydride seed treatment ([2]; 500 g a.i./ha): 63
- Response of corn, Without naphthalic anhydride seed treatment ([2]; 500 g a.i./ha): 85
- Plant response rating (0-100), Blackgrass (blackgrass; Postemergence, 62 g ai/ha): 70
- Plant response rating (0-100), Blackgrass (blackgrass; Postemergence, 125 g ai/ha): 80
- Plant response rating (0-100), Blackgrass (blackgrass; Postemergence, 250 g ai/ha): 100
- Plant response rating (0-100), Blackgrass (blackgrass; Postemergence, 500 g ai/ha): 100
- Plant response rating (0-100), Blackgrass (blackgrass; Preemergence, 62 g ai/ha): 90
- Plant response rating (0-100), Blackgrass (blackgrass; Preemergence, 125 g ai/ha): 100
- Plant response rating (0-100), Blackgrass (blackgrass; Preemergence, 250 g ai/ha): 100
- Plant response rating (0-100), Blackgrass (blackgrass; Preemergence, 500 g ai/ha): 100
- Plant response rating (0-100), Barley, Winter (winter barley; Postemergence, 62 g ai/ha): 40
- Plant response rating (0-100), Barley, Winter (winter barley; Postemergence, 125 g ai/ha): 50
- Plant response rating (0-100), Barley, Winter (winter barley; Postemergence, 250 g ai/ha): 80
- Plant response rating (0-100), Barley, Winter (winter barley; Postemergence, 500 g ai/ha): 80
- Plant response rating (0-100), Barley, Winter (winter barley; Preemergence, 62 g ai/ha): 70
- Plant response rating (0-100), Barley, Winter (winter barley; Preemergence, 125 g ai/ha): 100
- Plant response rating (0-100), Barley, Winter (winter barley; Preemergence, 250 g ai/ha): 100
- Plant response rating (0-100), Barley, Winter (winter barley; Preemergence, 500 g ai/ha): 100
- Plant response rating (0-100), Kochia (kochia [1]; Postemergence, 62 g ai/ha): 100
- Plant response rating (0-100), Kochia (kochia [1]; Postemergence, 125 g ai/ha): 100
- Plant response rating (0-100), Kochia (kochia [1]; Postemergence, 250 g ai/ha): 100
- Plant response rating (0-100), Kochia (kochia [1]; Postemergence, 500 g ai/ha): 100
- Plant response rating (0-100), Kochia (kochia [1]; Preemergence, 62 g ai/ha): 60
- Plant response rating (0-100), Kochia (kochia [1]; Preemergence, 125 g ai/ha): 100
- Plant response rating (0-100), Kochia (kochia [1]; Preemergence, 250 g ai/ha): 100
- Plant response rating (0-100), Kochia (kochia [1]; Preemergence, 500 g ai/ha): 100
- Plant response rating (0-100), Galium (catchweed bedstraw; Preemergence, 62 g ai/ha): 60
- Plant response rating (0-100), Galium (catchweed bedstraw; Preemergence, 125 g ai/ha): 70
- Plant response rating (0-100), Galium (catchweed bedstraw; Preemergence, 250 g ai/ha): 100
- Plant response rating (0-100), Galium (catchweed bedstraw; Preemergence, 500 g ai/ha): 100
- Plant response rating (0-100), Pigweed (pigweed; Postemergence, 62 g ai/ha): 70
- Plant response rating (0-100), Pigweed (pigweed; Postemergence, 125 g ai/ha): 90
- Plant response rating (0-100), Pigweed (pigweed; Postemergence, 250 g ai/ha): 100
- Plant response rating (0-100), Pigweed (pigweed; Postemergence, 500 g ai/ha): 100
- Plant response rating (0-100), Pigweed (pigweed; Preemergence, 62 g ai/ha): 90
- Plant response rating (0-100), Pigweed (pigweed; Preemergence, 125 g ai/ha): 100
- Plant response rating (0-100), Pigweed (pigweed; Preemergence, 250 g ai/ha): 100
- Plant response rating (0-100), Pigweed (pigweed; Preemergence, 500 g ai/ha): 100
- Plant response rating (0-100), Canarygrass (littleseed canarygrass; Postemergence, 62 g ai/ha): 70
- Plant response rating (0-100), Canarygrass (littleseed canarygrass; Postemergence, 125 g ai/ha): 70
- Plant response rating (0-100), Canarygrass (littleseed canarygrass; Postemergence, 250 g ai/ha): 100
- Plant response rating (0-100), Canarygrass (littleseed canarygrass; Postemergence, 500 g ai/ha): 100
- Plant response rating (0-100), Canarygrass (littleseed canarygrass; Preemergence, 62 g ai/ha): 100
- Plant response rating (0-100), Canarygrass (littleseed canarygrass; Preemergence, 125 g ai/ha): 100
- Plant response rating (0-100), Canarygrass (littleseed canarygrass; Preemergence, 250 g ai/ha): 100
- Plant response rating (0-100), Canarygrass (littleseed canarygrass; Preemergence, 500 g ai/ha): 100
- Plant response rating, Kochia (kochia [3]; [4]): 60
- Plant response rating, Kochia (kochia [3]; Preemergence, 125 g ai/ha, scale 0 to 100): 70
- Plant response rating, Kochia (kochia [3]; [5]): 95
- Plant response rating, Kochia (kochia [3]; [6]): 95
